One series has as its system male C57/BL6 mice. The experiment in a line: Mouse basal locomotor activity. As to conditions: po, 10 mg/kg P.O. The format is in vivo. Here is the method:
To measure basal locomotor activity, male C57/BL6 mice (8-16 weeks) (Jackson Laboratories, Sacramento, Calif.) were transferred in home cages to the testing room approximately 60 minutes prior to testing. Approximately 15 minutes after arrival in the testing room, a dark cycle commenced, with lights turning off and infrared lights turning on for experimenter visibility. Thirty minutes after the lights were turned off, animals were individually weighed and administered either vehicle (20% hydroxypropyl-β-cyclodextrin) Compound 13 (1, 2, 5, 10, or 20 mg/kg P.O.), or another GPR52 agonist (10 mg/kg P.O.) and returned to home cages. Fifteen minutes later, mice were placed into locomotor cages and activity was recorded for 60 minutes.

A further series deals with T1, recombinant GPR52 (Homo sapiens, UniProt Q9Y2T5).
T1 construct: expressed in transfected cells
T1 sequence (Q9Y2T5 whole entry): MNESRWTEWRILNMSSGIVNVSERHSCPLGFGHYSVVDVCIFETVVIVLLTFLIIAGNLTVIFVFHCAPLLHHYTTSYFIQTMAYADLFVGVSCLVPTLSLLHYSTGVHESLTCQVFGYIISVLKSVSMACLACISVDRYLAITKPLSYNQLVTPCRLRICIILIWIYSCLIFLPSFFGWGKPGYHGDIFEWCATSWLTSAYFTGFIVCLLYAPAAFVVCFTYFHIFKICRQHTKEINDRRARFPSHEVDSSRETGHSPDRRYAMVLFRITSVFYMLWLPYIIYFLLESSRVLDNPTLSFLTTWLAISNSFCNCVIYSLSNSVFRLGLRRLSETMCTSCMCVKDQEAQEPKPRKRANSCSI
The experiment in a line: HTRF cAMP assay for direct cAMP measurement. It is filed as cell-based. The following applies: mean EC50; CHO-K1 or HEK293 cells stably expressing recombinant GPR52. The protocol: HTRF cAMP assays were performed using commercially available assay kits according to the manufacturer's instructions (cAMP Dynamic 2 Assay Kit; #62AM4PEJ, Cisbio Bioassays, Bedford, Mass.). CHO-K1 or HEK293 cells stably expressing recombinant GPR52 were harvested and resuspended in assay buffer (PBS containing 0.5 mM IBMX and 0.1% BSA) at a density of 1.2×10^6 cells per mL. […] Test compounds were solubilized and serially diluted in DMSO using 5-fold dilutions to generate 10-point dose response curves. These serially diluted samples were then further diluted in PBS to achieve a 2× stock. The diluted compounds were transferred to triplicate assay plates (5 μL per well to achieve the 1× final assay concentration). A positive control was included in each assay run. After one-hour incubation at room temperature, 5 μL of cAMP D2 reagent diluted in lysis buffer was added to each well, followed by 5 μL of cryptate reagent. Plates were then incubated at room temperature for one hour prior to reading. Time-resolved fluorescence measurements were collected on an HTRF-capable plate reader (e.g., EnVision® (PerkinElmer, Waltham, Mass.) or PHERAstar (BMG LABTECH, Cary, N.C.)). Counts from the plate reader were fit to the cAMP standard curve included on each plate to determine the amount of cAMP in each test well. Dose-response curves were generated from the cAMP data and analyzed using a nonlinear least squares curve-fitting program to obtain EC50 values.
Background: Time-resolved FRET reads energy transfer from a long-lived donor to a nearby acceptor.

Series [1] is described as follows: Brain penetration (plasma and brain exposure). The format is in vivo, mouse. The following applies: male C57BL6 mice, 60 minute time point. Here is the method: Plasma and brain exposure were evaluated to determine the brain penetration of compounds described herein. Male C57BL6 mice were administered a single per oral (PO) dose of compound at 3 or 10 mg/kg (as a free base) formulated in 20% HPCD in 0.9% NaCl. Blood and brain samples were collected 60 minutes post-dose (n=3-6 animals). Blood was collected via cardiac puncture and stored on ice prior to the separation of plasma by centrifugation. Brains were extracted from the cranium and frozen on dry ice. Tissue samples were stored at approximately −80° C. prior to bioanalytical analysis.
Analyte plasma and brain concentrations were determined by LC/MS/MS.

The results in this text go back to patent US9676758B2, “1-heteroaryl-indoline-4-carboxamides as modulators of GPR52 useful for the treatment or prevention of disorders related thereto” (Arena Pharmaceuticals, Inc., priority 2015, dated 2017).

One may read the inhibition as the drop in the measured response relative to a control, in per cent. A high value points to strong suppression. A word on the EC50: it is the concentration giving half of the maximal effect.

For `NC(=O)c1cccc2c1CCN2c1cc(Cc2ccc(F)c(C(F)(F)F)c2)ccn1` [Compound 61, 1-(4-(4-Fluoro-3-(trifluoromethyl)benzyl)pyridin-2-yl)indoline-4-carboxamide], 10 mg/kg produced 61% inhibition in the series with male C57/BL6 mice.
As for `COc1ccc(Cc2ccnc(N3CCc4c(C(N)=O)cccc43)c2)cc1F` [Compound 54, 1-(4-(3-Fluoro-4-methoxybenzyl)pyridin-2-yl)indoline-4-carboxamide], the EC50 at recombinant GPR52 amounted to 5.57 nM. This compound also returned an inhibition at 10 mg/kg in the series with male C57/BL6 mice of 66%. The “Brain/Plasma Ratio” value in series [1] (PO dose 10 mg/kg) stood at 6.32.
Turning to `O=C(NCCO)c1c(F)ccc2c1CCN2c1cc(Cc2cc(F)c(F)c(F)c2)ccn1` [Compound 140, 5-Fluoro-N-(2-hydroxyethyl)-1-(4-(3,4,5-trifluorobenzyl)pyridin-2-yl)indoline-4-carboxamide], the EC50 at recombinant GPR52 is 30.1 nM. Besides, at 10 mg/kg the inhibition with male C57/BL6 mice was 68%.
For the compound `CC(=O)c1cccc(Cc2ccnc(N3CCc4c(C(N)=O)cccc43)c2)c1` [Compound 78, 1-(4-(3-Acetylbenzyl)pyridin-2-yl)indoline-4-carboxamide], the EC50 at recombinant GPR52 was determined as 11.2 nM. In the series with male C57/BL6 mice, this compound came in with an inhibition at 10 mg/kg of 72%. For the same compound, the “Brain/Plasma Ratio” value in series [1] (PO dose 10 mg/kg) came out at 1.36.
For the compound `COc1ccc(Cc2ccnc(N3CCc4c3ccc(F)c4C(=O)NC[C@@H](F)CO)c2)cc1F` [Compound 167, (R)-5-Fluoro-N-(2-fluoro-3-hydroxypropyl)-1-(4-(3-fluoro-4-methoxybenzyl)pyridin-2-yl)indoline-4-carboxamide], on recombinant GPR52, the EC50 stood at 18.2 nM. The same compound had an inhibition at 10 mg/kg with male C57/BL6 mice of 62%.
On to `COc1ccc(Cc2ccnc(N3CCc4c(C(=O)NCCO)cccc43)c2)cc1F` [Compound 69, 1-(4-(3-Fluoro-4-methoxybenzyl)pyridin-2-yl)-N-(2-hydroxyethyl)indoline-4-carboxamide], for which the EC50 on recombinant GPR52 stood at 3.11 nM. Besides, the “Brain/Plasma Ratio” value in series [1] (PO dose 10 mg/kg) worked out at 0.87.
For the compound `O=C(NCCO)c1c(F)ccc2c1CCN2c1cc(Cc2cccc(C(F)(F)F)c2)ccn1` [Compound 108, 5-Fluoro-N-(2-hydroxyethyl)-1-(4-(3-(trifluoromethyl)benzyl)pyridin-2-yl)indoline-4-carboxamide], the “Brain/Plasma Ratio” value in series [1] (PO dose 10 mg/kg) stood at 1.67.
With `O=C(NC1CCN(CCO)CC1)c1cccc2c1CCN2c1cc(Cc2ccc3c(c2)CCO3)ccn1` [Compound 79, 1-(4-((2,3-Dihydrobenzofuran-5-yl)methyl)pyridin-2-yl)-N-(1-(2-hydroxyethyl)piperidin-4-yl)indoline-4-carboxamide], the “Brain/Plasma Ratio” value in series [1] (PO dose 10 mg/kg) is recorded as 0.16.
Take `NC(=O)c1cccc2c1CCN2c1cc(Cc2ccc(F)c(Cl)c2)ccn1` [Compound 58, 1-(4-(3-Chloro-4-fluorobenzyl)pyridin-2-yl)indoline-4-carboxamide]: the “Brain/Plasma Ratio” value in series [1] (PO dose 10 mg/kg) is given as 7.76.
Consider `O=C(NC[C@@H](F)CO)c1cccc2c1CCN2c1cc(Cc2cc(F)c(F)c(F)c2)ccn1` [Compound 166, (R)—N-(2-Fluoro-3-hydroxypropyl)-1-(4-(3,4,5-trifluorobenzyl)pyridin-2-yl)indoline-4-carboxamide], for which, on recombinant GPR52, the EC50 was 12.2 nM. For the same compound, in the series on male C57/BL6 mice, testing at 10 mg/kg gave an inhibition of 70%. For the same compound, in series [1] (PO dose 10 mg/kg), the “Brain/Plasma Ratio” value was determined as 2.85.
On to `O=C(NCCO)c1cccc2c1CCN2c1cc(Cc2cc(F)c(F)c(F)c2)ccn1` [Compound 92, N-(2-Hydroxyethyl)-1-(4-(3,4,5-trifluorobenzyl)pyridin-2-yl)indoline-4-carboxamide], for which the EC50 at recombinant GPR52 came to 8.87 nM. Besides, at 10 mg/kg the inhibition in the series on male C57/BL6 mice was 65%. Besides, the “Brain/Plasma Ratio” value in series [1] (PO dose 10 mg/kg) is given as 3.00.
As to `NC(=O)c1cccc2c1CCN2c1cc(Cc2cncc(C(F)(F)F)c2)ccn1` [Compound 47, 1-(4-((5-(Trifluoromethyl)pyridin-3-yl)methyl)pyridin-2-yl)indoline-4-carboxamide], in series [1] (PO dose 10 mg/kg), the “Brain/Plasma Ratio” value is 4.67.
The same measure, in the same setting: in the case of `NC(=O)c1cccc2c1CCN2c1cc(Cc2cc(F)cc(Cl)c2)ccn1` [Compound 42, 1-(4-(3-Chloro-5-fluorobenzyl)pyridin-2-yl)indoline-4-carboxamide] it was 12.40.
For the compound `NC(=O)c1cccc2c1CCN2c1cc(Cc2ccc3occc3c2)ccn1` [Compound 106, 1-(4-(Benzofuran-5-ylmethyl)pyridin-2-yl)indoline-4-carboxamide], the inhibition at 10 mg/kg in the series on male C57/BL6 mice was determined as 81%.
The same measure, in the same setting: in the case of `COc1ccc(Cc2ccnc(N3CCc4c(C(=O)NC[C@@H](F)CO)cccc43)c2)cc1F` [Compound 202, (R)—N-(2-Fluoro-3-hydroxypropyl)-1-(4-(3-fluoro-4-methoxybenzyl)pyridin-2-yl)indoline-4-carboxamide] it was 67%.
For `N#Cc1cc(Cc2ccnc(N3CCc4c(C(N)=O)cccc43)c2)ccc1F` [Compound 60, 1-(4-(3-Cyano-4-fluorobenzyl)pyridin-2-yl)indoline-4-carboxamide], the EC50 on recombinant GPR52 was 11.7 nM.
For the compound `O=C(NCCO)c1cccc2c1CCN2c1cc(Oc2cc(F)cc(C(F)(F)F)c2)ccn1` [Compound 23, 1-(4-(3-Fluoro-5-(trifluoromethyl)phenoxy)pyridin-2-yl)-N-(2-hydroxyethyl)indoline-4-carboxamide], the EC50 at recombinant GPR52 stood at 98.4 nM.
For the compound `Cn1cc(NC(=O)c2cccc3c2CCN3c2cc(Cc3cc(F)c(F)c(F)c3)ccn2)cn1` [Compound 117, N-(1-Methyl-1H-pyrazol-4-yl)-1-(4-(3,4,5-trifluorobenzyl)pyridin-2-yl)indoline-4-carboxamide], the EC50 on recombinant GPR52 was 23.6 nM.
In the series on male C57/BL6 mice, `COC[C@@H](O)CNC(=O)c1cccc2c1CCN2c1cc(Cc2cc(F)c(F)c(F)c2)ccn1` [Compound 138, (S)—N-(2-Hydroxy-3-methoxypropyl)-1-(4-(3,4,5-trifluorobenzyl)pyridin-2-yl)indoline-4-carboxamide] gave an inhibition at 10 mg/kg of 72%.
In the case of `Cc1cc(Cc2cccc(C(F)(F)F)c2)cc(N2CCc3c(C(N)=O)cccc32)n1` [Compound 17, 1-(6-Methyl-4-(3-(trifluoromethyl)benzyl)pyridin-2-yl)indoline-4-carboxamide], the EC50 at recombinant GPR52 stood at 80.4 nM.
Take `NC(=O)c1cccc2c1CCN2c1cc(Cc2cccc(OC(F)(F)F)c2)ccn1` [Compound 64, 1-(4-(3-(Trifluoromethoxy)benzyl)pyridin-2-yl)indoline-4-carboxamide]: the EC50 on recombinant GPR52 was 23.1 nM.
`O=C(NCCO)c1cccc2c1CCN2c1cc(Cc2cc(F)cc(Cl)c2)ccn1` [Compound 43, 1-(4-(3-Chloro-5-fluorobenzyl)pyridin-2-yl)-N-(2-hydroxyethyl)indoline-4-carboxamide]: the EC50 at recombinant GPR52 came out at 9.76 nM. The compound further returned an inhibition at 10 mg/kg in the series with male C57/BL6 mice of 79%. Further, the “Brain/Plasma Ratio” value in series [1] (PO dose 10 mg/kg) was 5.45.
For the compound `O=C(NCCO)c1cccc2c1CCN2c1ccnc(Cc2cc(F)cc(Cl)c2)c1` [Compound 187, 1-(2-(3-Chloro-5-fluorobenzyl)pyridin-4-yl)-N-(2-hydroxyethyl)indoline-4-carboxamide], the EC50 at recombinant GPR52 was 12.9 nM.
On to `CN(C)CC(O)CNC(=O)c1cccc2c1CCN2c1cc(Cc2cc(F)c(F)c(F)c2)ccn1` (stereo not shown) [Compound 158, N-(3-(Dimethylamino)-2-hydroxypropyl)-1-(4-(3,4,5-trifluorobenzyl)pyridin-2-yl)indoline-4-carboxamide], for which the EC50 at recombinant GPR52 was found to be 6.76 nM.
With `NC(=O)c1cccc2c1CCN2c1cc(Cc2cccc(C(F)(F)F)c2)ccn1` [Compound 5, 1-(4-(3-(Trifluoromethyl)benzyl)pyridin-2-yl)indoline-4-carboxamide], the “Brain/Plasma Ratio” value in series [1] (PO dose 3 mg/kg) was found to be 4.49.
Compound `C[C@@H](O)CNC(=O)c1cccc2c1CCN2c1cc(Cc2cc(F)c(F)c(F)c2)ccn1` [Compound 179, (R)—N-(2-Hydroxypropyl)-1-(4-(3,4,5-trifluorobenzyl)pyridin-2-yl)indoline-4-carboxamide] came in with an inhibition at 10 mg/kg in the series with male C57/BL6 mice of 68%.
As for `CC(=O)Oc1cccc(Cc2ccnc(N3CCc4c(C(N)=O)cccc43)c2)c1` [Compound 102, 3-((2-(4-Carbamoylindolin-1-yl)pyridin-4-yl)methyl)phenyl acetate], at recombinant GPR52, the EC50 came to 21.4 nM.
